Assay results from US20180215784A1, “METHOD FOR PREPARATION OF N-ACYL PEPTIDES, POLYPEPTIDES AND PROTEINS” (NEODEL TEC LTD., priority 2015, published 2018).
Converted amounts (≈) assume the structure as drawn. Read-outs that look alike come from different tables or passages of the source.

Experiments:
[1] = cited from earlier work
[2] = tested on: human skin fibroblast cell line CRL1121; assay: Stimulation of pro-collagen synthesis/secretion in cultured human skin fibroblasts (immunoblotting, densitometry); type: cell-based; details: for pro-collagen synthesis/secretion: serum-free medium with sodium ascorbate and 0.5% ethanol, vs control carrier, immunoblot FIG. 1
Method: The effect of N-octanoyl-Gly-Pro (also referred to herein as OGP) prepared in Example 2 on intracellular synthesis of pro-collagen, the precursor of collagen, was tested. OGP was applied from a 250 mg/ml stock solution in ethanol. The composition of the solute, estimated by thin layer chromatography, was 80% OGP, 15% nicotinamide and 5% octanoic acid.
The human skin fibroblast cell line CRL1121, obtained from ATCC (American Type Culture Collection), was used for monitoring pro-collagen synthesis. Cells were grown in high glucose-DMEM containing 10% Fetal Calf Serum and antibiotics (streptomycin and penicillin). Confluent cells were suspended and inoculated into wells in 96-well microplates at 7,500 cells/well. At confluency, the cells were placed on fresh medium plus sodium ascorbate (50 μg/ml) for 24 hrs. The cells were then washed with phosphate-buffered saline (PBS) and placed on serum-free medium containing sodium ascorbate, 0.5% ethanol and 50 μM OGP. Controls included cells placed in the same medium, without OGP. After 24 hrs incubation of the experimental and control cells, media were collected, centrifuged, and the proteins were denatured by SDS and heat, and stored at −20° C. for immunoblotting analyses. The cell layers were washed with PBS, dissolved in SDS sample buffer, centrifuged and stored at −20° C. until use.
The relative amount of pro-collagen secreted into the medium was determined by immunoblotting with an antibody directed to the C-terminal telopeptide of the α1(I) collagen chain, followed by enhanced chemiluminescence detection and densitometry (Shalitin N, Schlesinger H, Levy, M J, Kessler E, Kessler-Icekson G. Expression of procollagen C-proteinase enhancer in cultured rat heart fibroblasts: Evidence for co-regulation with type I collagen, J. Cell. Biochem. 90:397-407, 2003). Protein concentrations in the cell lysates were determined using the Lowry method and served for standardization. The relative Optical Density of the band corresponding to the (I) chain of pro-collagen was divided by the amount of protein and was expressed as D/P (i.e. band intensity per 1 μg protein). […] FIG. 2 presents the relative amounts of the produced and secreted pro-collagen in the OGP-treated culture compared to the control.

Which solubility ([1]; ethanol) does the source give for `NC(=O)c1cccnc1` [nicotinamide] here?
Its solubility is 1 g/1.5 ml.

And the solubility ([1]; water)?
Its solubility is 1 g/mL (≈ 8190 mM).

With N-octanoyl-Gly-Pro [OGP] as the compound, how does the pro-collagen synthesis/secretion ([2]; 50 μM OGP, 24 hrs) read?
Its pro-collagen synthesis/secretion is “greatly enhanced pro-collagen synthesis”.

What about the pro-collagen synthesis/secretion ([2]; 50 μM OGP, 24 hrs, listed as Oct-GP) of the same compound?
The pro-collagen synthesis/secretion was “stimulates pro-collagen synthesis/secretion”.

And the “increase of pro-collagen synthesis and secretion (factor vs control)” value ([2]; 50 μM OGP, 24 hrs, densitometry of control lanes 3 and 4, standardized to protein contents)?
Its value is at least 8.3.

And the “relative amounts of pro-collagen produced and secreted into the medium (D/P ratio)” value ([2]; Oct-GP-treated culture vs control, densitometry standardized by protein, FIG. 2)?
The value was “higher than those of the control”.
